# What was measured:
# [1] = system: antibodies in sera from SARS patients (sera 1a, 1b, 2, 6, 37, 62, London, SARS-yellow, SARS-green); assay type: binding, human; design: Binding of serum 6 to linear peptides of protein X1 of SARS-CoV Urbani / Binding of serum 37 to linear peptides of protein X1 of SARS-CoV Urbani / Binding of serum 6 to looped/cyclic peptide (PEPSCAN-ELISA) / Binding of serum 37 to looped/cyclic peptide (PEPSCAN-ELISA) / Binding of serum 37 to looped/cyclic peptides of protein X1 of SARS-CoV Urbani / Binding of serum 6 to linear peptides of protein X2 / Binding of serum 37 to linear peptides of protein X2 / Binding of serum 37 to looped/cyclic peptides of protein X2 of SARS-CoV Urbani / Binding of serum 6 to linear peptides of protein M of SARS-CoV Urbani / Binding of serum 37 to linear peptides of protein M of SARS-CoV Urbani / Binding of serum 6 to looped/cyclic peptides of protein M of SARS-CoV Urbani / Binding of serum 37 to looped/cyclic peptides of protein M of SARS-CoV Urbani / Binding of serum 6 to linear peptides of protein X3 of SARS-CoV Urbani / Binding of serum 37 to linear peptides of protein X3 of SARS-CoV Urbani / Binding of serum 37 to looped/cyclic peptides of protein X3 of SARS-CoV Urbani / Binding of serum 6 to linear peptides of protein X4 of SARS-CoV Urbani / Binding of serum 37 to linear peptides of protein X4 of SARS-CoV Urbani / Binding of serum 37 to looped/cyclic peptides of protein X4 of SARS-CoV Urbani / Binding of serum 6 to linear peptides of protein X5 of SARS-CoV Urbani / Binding of serum 37 to linear peptides of protein X5 of SARS-CoV Urbani / Binding of serum 37 to looped/cyclic peptides of protein X5 of SARS-CoV Urbani / Binding of serum 6 to linear peptides of protein N of SARS-CoV Urbani / Binding of serum 37 to linear peptides of protein N of SARS-CoV Urbani / Binding of serum 6 to linear peptide (PEPSCAN-ELISA) / Binding of serum 1a to looped/cyclic peptides of protein N of SARS-CoV Urbani / Binding of serum 1b to looped/cyclic peptides of protein N of SARS-CoV Urbani / Binding of serum 2 to looped/cyclic peptides of protein N of SARS-CoV Urbani / Binding of serum 6 to looped/cyclic peptides of protein N of SARS-CoV Urbani / Binding of serum 37 to looped/cyclic peptides of protein N of SARS-CoV Urbani / Binding of serum 62 to looped/cyclic peptides of protein N of SARS-CoV Urbani / Binding of serum London to looped/cyclic peptides of protein N of SARS-CoV Urbani / Binding of serum SARS-green to looped/cyclic peptides of protein N of SARS-CoV Urbani: unit not given here
# [2] = system: recombinant human anti-SARS-CoV antibody 03-018; assay type: binding; design: Binding of antibody 03-018 to linear peptides of the N protein of SARS-CoV Urbani / Binding of antibody 03-018 to looped/cyclic peptides of the N protein of SARS-CoV Urbani: unit not given here
# [3] = system: rabbit serum obtained by immunizing a rabbit with the SARS-CoV strain Frankfurt 1; assay type: binding; design: Binding of a rabbit serum to linear peptides / Binding of a rabbit serum to looped peptides / Rabbit serum linear peptides / Rabbit serum looped peptides / Binding of a rabbit serum to linear peptides of protein N of SARS-CoV Urbani (Rabbit serum linear peptides) / Binding of a rabbit serum to looped/cyclic peptides of protein N of SARS-CoV Urbani (Rabbit serum looped peptides): unit not given here
# [4] = system: control sera (pooled serum of ten healthy LUMC hospital workers; commercial negative donor pooled serum from the Dutch bloodbank); assay type: binding, human; design: Binding of Control serum LUMC to linear peptides / Binding of Control serum Blood-bank to linear peptides / Binding of Control serum LUMC to looped peptides / Binding of Control Serum Blood-Bank to Looped peptides / Binding of Control serum LUMC to linear peptides of the protein M of SARS-CoV Urbani / Binding of Control serum Blood-bank to linear peptides of the protein M of SARS-CoV Urbani / Binding of Control serum LUMC to looped peptides of the protein M of SARS-CoV Urbani / Binding of Control Serum Blood-Bank to Looped peptides of the protein M of SARS-CoV Urbani: unit not given here
Sequence,Binding of serum 1a to looped/cyclic peptides of protein N of SARS-CoV Urbani [1],Binding of serum 1b to looped/cyclic peptides of protein N of SARS-CoV Urbani [1],Binding of serum 2 to looped/cyclic peptides of protein N of SARS-CoV Urbani [1],Binding of serum 6 to looped/cyclic peptides of protein N of SARS-CoV Urbani [1],Binding of serum 37 to looped/cyclic peptides of protein N of SARS-CoV Urbani [1],Binding of serum 62 to looped/cyclic peptides of protein N of SARS-CoV Urbani [1],Binding of serum London to looped/cyclic peptides of protein N of SARS-CoV Urbani [1],Binding of serum SARS-green to looped/cyclic peptides of protein N of SARS-CoV Urbani [1],Binding of serum SARS-yellow to looped/cyclic peptides of protein N of SARS-CoV Urbani [1],Binding of antibody 03-018 to linear peptides of the N protein of SARS-CoV Urbani [2],Binding of antibody 03-018 to looped/cyclic peptides of the N protein of SARS-CoV Urbani [2],Binding of a rabbit serum to linear peptides of protein N of SARS-CoV Urbani (Rabbit serum linear peptides) [3],Binding of a rabbit serum to looped/cyclic peptides of protein N of SARS-CoV Urbani (Rabbit serum looped peptides) [3],Binding of serum 1a to linear peptide (PEPSCAN-ELISA) [1],Binding of serum 1b to linear peptide (PEPSCAN-ELISA) [1],Binding of serum 2 to linear peptide (PEPSCAN-ELISA) [1],Binding of serum 6 to linear peptide (PEPSCAN-ELISA) [1],Binding of serum 37 to linear peptide (PEPSCAN-ELISA) [1],Binding of serum 62 to linear peptide (PEPSCAN-ELISA) [1],Binding of serum London to linear peptide (PEPSCAN-ELISA) [1],other results
EPKKDKKKKTDEAQP,0.2,0.1,2.1,0.1,0.4,0.3,0.3,0.0,0.1,0.1,0.2,0.2,0.3,–,–,–,–,–,–,–,Binding of serum 1a to linear peptides of protein N of SARS-CoV Urbani [1]: 0.2; Binding of serum 1b to linear peptides of protein N of SARS-CoV Urbani [1]: 0.1; Binding of serum 2 to linear peptides of protein N of SARS-CoV Urbani [1]: 2.4; Binding of serum 6 to linear peptides of protein N of SARS-CoV Urbani [1]: 0.2; Binding of serum 37 to linear peptides of protein N of SARS-CoV Urbani [1]: 0.7; Binding of serum 62 to linear peptides of protein N of SARS-CoV Urbani [1]: 0.7; Binding of serum London to linear peptides of protein N of SARS-CoV Urbani [1]: 0.7; Binding of serum SARS-green to linear peptides of protein N of SARS-CoV Urbani [1]: 0.5; Binding of serum SARS-yellow to linear peptides of protein N of SARS-CoV Urbani [1]: 0.6; Control Serum Blood-Bank Looped peptides [4]: 0.5; Control serum Blood-bank linear peptides [4]: 0.8; Control serum LUMC linear peptides [4]: 0.8; Control serum LUMC looped peptides [4]: 0.3
RNSTPGSSRGNSPAR,0.4,0.3,0.4,0.3,0.5,0.5,0.5,0.1,0.5,0.1,0.2,–,–,0.6,0.3,0.3,0.2,0.7,0.7,0.4,Binding of serum SARS-green to linear peptide (PEPSCAN-ELISA) [1]: 0.4; Binding of serum SARS-yellow to linear peptide (PEPSCAN-ELISA) [1]: 0.7; Recognition of the peptide by the rabbit serum [3]: recognized; Binding of Control Serum Blood-Bank to Looped peptides [4]: 0.6; Binding of Control serum Blood-bank to linear peptides [4]: 0.9; Binding of Control serum LUMC to linear peptides [4]: 0.8; Binding of Control serum LUMC to looped peptides [4]: 0.7
GSQASSRSSSRSRGN,0.4,0.2,0.4,0.3,0.7,0.6,0.5,0.1,0.5,0.1,0.2,0.2,0.7,0.3,0.1,0.4,0.4,0.7,0.6,0.6,Binding of serum SARS-green to linear peptide (PEPSCAN-ELISA) [1]: 0.3; Binding of serum SARS-yellow to linear peptide (PEPSCAN-ELISA) [1]: 0.7; Binding of Control Serum Blood-Bank to Looped peptides [4]: 0.6; Binding of Control serum Blood-bank to linear peptides [4]: 0.8; Binding of Control serum LUMC to linear peptides [4]: 0.8; Binding of Control serum LUMC to looped peptides [4]: 0.6
QGNFGDQDLIRQGTD,0.4,0.3,0.3,0.2,0.6,0.5,0.4,0.7,0.6,0.1,0.2,0.2,0.4,0.3,0.2,0.2,0.2,0.8,0.8,0.5,Binding of serum SARS-green to linear peptide (PEPSCAN-ELISA) [1]: 0.6; Binding of serum SARS-yellow to linear peptide (PEPSCAN-ELISA) [1]: 0.8; Binding of Control Serum Blood-Bank to Looped peptides [4]: 0.5; Binding of Control serum Blood-bank to linear peptides [4]: 0.6; Binding of Control serum LUMC to linear peptides [4]: 0.7; Binding of Control serum LUMC to looped peptides [4]: 0.6
DRLNQLESKVSGKGQ,0.4,0.3,0.6,0.4,0.6,0.4,0.4,0.4,0.8,0.1,0.3,0.3,0.4,0.3,0.1,0.3,0.2,0.8,0.7,0.5,Binding of serum SARS-green to linear peptide (PEPSCAN-ELISA) [1]: 0.5; Binding of serum SARS-yellow to linear peptide (PEPSCAN-ELISA) [1]: 0.7; Binding of Control Serum Blood-Bank to Looped peptides [4]: 0.6; Binding of Control serum Blood-bank to linear peptides [4]: 0.9; Binding of Control serum LUMC to linear peptides [4]: 0.7; Binding of Control serum LUMC to looped peptides [4]: 0.6
